Like-named read-outs stand apart in the source and are kept apart here. Each block holds one compound with its values, some of them ahead of it.
Columns and labels:
NC/Nga mice = conditions: cited from earlier work
[1] = in vivo
Procedure: In order to clarify the relationship between the amount of DGLA orally ingested in humans and the internal DGLA level, the amount of DGLA orally ingested was investigated by examination of the diet, and after drawing blood, the amount of DGLA in the serum phospholipids was determined. The subjects were eleven healthy males aged 60-70, and were asked to keep a diary of the content of their diets. From the diary, the amount ingested by each food material was determined for meat, eggs, and seafood known to contain DGLA, and using the DGLA content of each food material calculated from “Fourth revised [sequence] […] From the amount of DGLA ingested per week, the mean amount of DGLA ingested per day was calculated for each person.
On the other hand, blood was drawn the day after the last entry of the diary, and for the serum phospholipid fractions obtained, the fatty acid composition was analyzed according to a standard method. Thus, from the serum the lipid component extracted by the Folch method, a standard method, and the lipid was fractionated on a thin layer chromatography (the developing solution is hexane/diethyl ether=7/3) to obtain the phospholipid fraction. […] The fatty acid methyl ester mixture was analyzed by a capillary gas chromatography to obtain DGLA (% by weight) in the total fatty acids in the serum phospholipid.

eosinophil migration = conditions: guinea pigs, cited from earlier work

Compound: CC/C=C\C/C=C\C/C=C\CCCCCCCC(=O)O [ALA, α-linolenic acid]
- prevention of atopic dermatitis (correction of dermatitis symptoms and blood IgE) (NC/Nga mice; same mouse model, diet containing a large amount of ALA, exact dose not known): no effect of preventing atopic dermatitis

- amount of DGLA required to increase DGLA in serum phospholipid about 3% by weight [1]: about 100 mg per day
- increase of DGLA in the serum phospholipid with each increase of about 32 mg in the amount of DGLA ingested [1]: 1 % by weight
Compound: CCCCC/C=C\C/C=C\C/C=C\CCCCCCC(=O)O [DGLA, dihomo-γ-linolenic acid]

Compound: CC/C=C\C/C=C\C/C=C\C/C=C\C/C=C\C/C=C\CCC(=O)OCC [DHA ethylester]
- eosinophil migration in the delayed type allergy (eosinophil migration; intraperitoneal administration of 50 mg): can inhibit eosinophil migration

Compound: CC/C=C\C/C=C\C/C=C\C/C=C\C/C=C\CCCC(=O)OCC [EPA ethylester]
- eosinophil migration in the delayed type allergy (eosinophil migration; intraperitoneal administration of 100 mg): can inhibit eosinophil migration

Compound: CCCCC/C=C\C/C=C\C/C=C\CCCCC(=O)O [GLA, γ-linolenic acid]
- formation of atopic dermatitis and IgE production (NC/Nga mice; NC/Nga mice, oral ingestion about 1250 mg/kg/day): effects of inhibiting the formation of atopic dermatitis and IgE production
